Assay results taken from ChEMBL document CHEMBL1150668, “Antimicrobial resveratrol tetramers from the stem bark of Vatica oblongifoliassp. oblongifolia” (2002).
In brackets after ≈: the same amount, converted by molar mass.

Tests used:
[1] = system: Mycolicibacterium smegmatis; assay: Antimicrobial activity against Mycobacterium smegmatis by microdilution method; assay type: functional
Staphylococcus aureus = assay: Antimicrobial activity against methicillin-resistant Staphylococcus aureus by microdilution method; assay type: functional

SMILES | MIC [1] | MIC (Staphylococcus aureus)
Oc1ccc([C@@H]2c3c(O)cc(O)cc3[C@@H]3c4c(cc(O)cc4[C@H]2[C@H]2c4cc(O)cc5c4[C@@H](c4cc(O)cc(O)c4[C@@H]2c2ccc(O)cc2)[C@H](c2ccc(O)cc2)O5)O[C@H]3c2ccc(O)cc2)cc1 [HOPEAPHENOL A] | 50 µg/mL (≈ 55.1 µM) | 100 µg/mL (≈ 110 µM)
Oc1ccc([C@@H]2c3c(O)cc(O)cc3[C@@H]3c4c(cc(O)c5c4[C@@H]2[C@H](c2ccc(O)cc2)[C@H]5c2cc(O)cc4c2[C@H](c2cc(O)cc(O)c2)[C@@H](c2ccc(O)cc2)O4)O[C@H]3c2ccc(O)cc2)cc1 [VATICAPHENOL A] | 25 µg/mL (≈ 27.6 µM) | 50 µg/mL (≈ 55.1 µM)
NNC(=O)c1ccncc1 [ISONIAZID] | 0.8 µg/mL (≈ 5.83 µM) | –
Oc1ccc([C@H]2c3c(O)cc(O)cc3[C@@H]3c4c(cc(O)cc4[C@H]2[C@H]2c4cc(O)cc5c4[C@@H](c4cc(O)cc(O)c4[C@@H]2c2ccc(O)cc2)[C@H](c2ccc(O)cc2)O5)O[C@H]3c2ccc(O)cc2)cc1 [ISOHOPEAPHENOL A] | > 100 µg/mL | > 100 µg/mL
CN[C@H](CC(C)C)C(=O)N[C@H]1C(=O)N[C@@H](CC(N)=O)C(=O)N[C@H]2C(=O)N[C@H]3C(=O)N[C@H](C(=O)N[C@H](C(=O)O)c4cc(O)cc(O)c4-c4cc3ccc4O)[C@H](O)c3ccc(c(Cl)c3)Oc3cc2cc(c3O[C@@H]2O[C@H](CO)[C@@H](O)[C@H](O)[C@H]2O[C@H]2C[C@](C)(N)[C@H](O)[C@H](C)O2)Oc2ccc(cc2Cl)[C@H]1O [VANCOMYCIN] | – | 0.8 µg/mL (≈ 0.552 µM)
